From PMC8842279, “Exploring Non-orthosteric Interactions with a Series of Potent and Selective A3 Antagonists” (ACS Medicinal Chemistry Letters, 2022)

Experiments:
[1] = molecular target: T1, hA2A (human A2A adenosine receptor) (Homo sapiens, UniProt P29274); format: binding; details: human HeLa cells, n = 2
T1 construct: expressed in transfected cells; host or cells: HeLa

[2] = molecular target: T2, hA2B (human A2B adenosine receptor) (Homo sapiens, UniProt P29275); assay: Radioligand binding, displacement of [3H]DPCPX, transfected HEK-293 cells; details: human HEK-293 cells, n = 2, read-out: hA2B % displacement of specific binding at 1 μM
T2 construct: expressed in transfected cells; host or cells: HEK-293
T2 sequence (P29275 1-332): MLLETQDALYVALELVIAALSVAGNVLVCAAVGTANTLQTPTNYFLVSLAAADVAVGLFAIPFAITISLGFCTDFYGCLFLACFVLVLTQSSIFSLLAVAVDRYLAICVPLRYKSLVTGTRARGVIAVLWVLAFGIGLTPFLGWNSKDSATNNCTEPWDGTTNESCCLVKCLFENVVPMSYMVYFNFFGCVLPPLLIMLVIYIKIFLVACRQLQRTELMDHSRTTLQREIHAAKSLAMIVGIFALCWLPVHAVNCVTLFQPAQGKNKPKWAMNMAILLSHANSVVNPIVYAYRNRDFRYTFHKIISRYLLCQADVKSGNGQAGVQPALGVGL
Description: (§1) Briefly, hARs were expressed in transfected CHO (A1AR), HeLa (A2AAR and A3AR), and HEK-293 (A2BAR) cells. (^3H)-8-Cyclopentyl-1,3-dipropylxanthine ([^3H]DPCPX) for A1AR and [^3H]NECA for A3AR were used as radioligands in the assays. […] Ki values were calculated by fitting the data with nonlinear regression using Prism 2.1 software (GraphPad). […].
(§2) Pharmacology. Binding assays
(§3) The adenosinergic profile (affinity and selectivity) of the 18 novel pyrimidine derivatives (7-10) was evaluated in vitro (four human AR subtypes) using radioligand binding assays. Human adenosine receptors were expressed in transfected CHO (A1AR), HeLa (A2AAR and A3AR) and HEK-293 (A2BAR) cells. (3H)-1,3-Dipropyl-8-cyclopentylxanthine ([3H]DPCPX) for A1AR and [3H]NECA for A3AR were employed as radioligands in the assays. […]
displace specific radioligand binding. Ki values were obtained by fitting the data with nonlinear regression using Prism 2.1 software (GraphPad, San Diego, CA). […]
(§4) (1 picture or pasted object on this page, not shown here)

[3] = molecular target: T3, hA1 (human A1 adenosine receptor) (Homo sapiens, UniProt P30542); assay: Radioligand binding, displacement of [3H]DPCPX, transfected CHO cells; details: n = 2, read-out: hA1 % displacement of specific binding at 1 μM
T3 construct: expressed in transfected cells; host or cells: CHO
T3 sequence (P30542 1-326): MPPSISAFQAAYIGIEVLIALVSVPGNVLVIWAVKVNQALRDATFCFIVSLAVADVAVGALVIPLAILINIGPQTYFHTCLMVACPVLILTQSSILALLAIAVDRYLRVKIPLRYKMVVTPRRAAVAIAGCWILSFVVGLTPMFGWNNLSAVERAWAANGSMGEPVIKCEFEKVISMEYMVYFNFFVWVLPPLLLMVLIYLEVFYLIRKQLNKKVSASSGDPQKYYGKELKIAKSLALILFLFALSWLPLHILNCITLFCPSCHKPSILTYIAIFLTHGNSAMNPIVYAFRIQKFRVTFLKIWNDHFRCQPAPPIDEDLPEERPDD
Description: as §1, §2, §3
displace specific radioligand binding. Ki values were obtained by fitting the data with nonlinear regression using Prism 2.1 software (GraphPad, San Diego, CA).
Furthermore, for A3AR, fluorescence polarization binding experiments were carried out in a 96-well plate (Corning 3650). D-PBS (Sigma D8537) was used as assay buffer. In each well, 100µg of membranes from Hela-A3 cell line previously prepared in our laboratory (Lot: A006/ 17-01-2020, […]
as standard and non-specific binding determined in presence of R-PIA 10µM (Sigma S739). 75 nM of the fluorescent ligand (CELT-228) was added, and the reaction mixture (Vt = 200µl) was incubated for 30 minutes at RT. The polarized fluorescence signal was read in an Infinite M1000 pro multiplate reader (Tecan 30063849). For validation of fluorescence polarization binding assay […] (hA 3AR Ki […]
representation of the concentration-response curves of the […].
as §4

T1 sequence (P29274 whole entry): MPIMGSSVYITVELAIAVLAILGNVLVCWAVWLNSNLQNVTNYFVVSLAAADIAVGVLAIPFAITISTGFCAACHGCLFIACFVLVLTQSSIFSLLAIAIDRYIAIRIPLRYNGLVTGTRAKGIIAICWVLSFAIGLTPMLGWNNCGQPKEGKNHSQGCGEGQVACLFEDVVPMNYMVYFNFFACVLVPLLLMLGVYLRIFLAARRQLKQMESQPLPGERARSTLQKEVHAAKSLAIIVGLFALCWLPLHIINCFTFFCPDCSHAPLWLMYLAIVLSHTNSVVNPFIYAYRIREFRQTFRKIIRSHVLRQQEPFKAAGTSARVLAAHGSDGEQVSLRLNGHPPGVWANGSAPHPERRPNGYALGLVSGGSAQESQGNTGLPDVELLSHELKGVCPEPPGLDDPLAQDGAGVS

SMILES	hA2A % displacement of specific binding at 1 μM [1]	inhibition at 1 µM [2]	inhibition at 1 µM [3]	melting point
COc1ccc(-c2cc(NC(=O)CCC(=O)NCC(=O)NC(C)(C)C)nc(-c3ccc(OC)cc3)n2)cc1 [7a]	3%	4%	10%	176 to 178 °C
COc1ccc(-c2cc(NC(=O)CCC(=O)NCC(=O)NC3CCCCC3)nc(-c3ccc(OC)cc3)n2)cc1 [7b]	9%	16%	5%	202 to 204 °C
COc1ccc(-c2cc(NC(=O)CCC(=O)NCC(=O)NCc3ccccc3)nc(-c3ccc(OC)cc3)n2)cc1 [7c]	3%	3%	2%	184 to 186 °C
COc1ccc(-c2cc(NC(=O)CCC(=O)N(C)CC(=O)NC(C)(C)C)nc(-c3ccc(OC)cc3)n2)cc1 [7d]	3%	10%	32%	136 to 138 °C
COc1ccc(-c2cc(NC(=O)CCC(=O)N(C)CC(=O)NC3CCCCC3)nc(-c3ccc(OC)cc3)n2)cc1 [7e]	11%	1%	9%	
COc1ccc(-c2cc(NC(=O)CCC(=O)N(C)CC(=O)NCc3ccccc3)nc(-c3ccc(OC)cc3)n2)cc1 [7f]	20%	2%	32%	
COc1ccc(-c2cc(NC(=O)COCC(=O)NCC(=O)NC(C)(C)C)nc(-c3ccc(OC)cc3)n2)cc1 [8a]	9%	3%	7%	
COc1ccc(-c2cc(NC(=O)COCC(=O)NCC(=O)NC3CCCCC3)nc(-c3ccc(OC)cc3)n2)cc1 [8b]	9%	3%	6%	113 to 115 °C
COc1ccc(-c2cc(NC(=O)COCC(=O)NCC(=O)NCc3ccccc3)nc(-c3ccc(OC)cc3)n2)cc1 [8c]	1%	2%	9%	201 to 203 °C
COc1ccc(-c2cc(NC(=O)COCC(=O)N(C)CC(=O)NC(C)(C)C)nc(-c3ccc(OC)cc3)n2)cc1 [8d]	4%	2%	20%	115 to 117 °C
COc1ccc(-c2cc(NC(=O)COCC(=O)N(C)CC(=O)NC3CCCCC3)nc(-c3ccc(OC)cc3)n2)cc1 [8e]	8%	2%	13%	186 to 188 °C
COc1ccc(-c2cc(NC(=O)COCC(=O)N(C)CC(=O)NCc3ccccc3)nc(-c3ccc(OC)cc3)n2)cc1 [8f]	1%	2%	6%	166 to 168 °C
COc1ccc(-c2cc(NC(=O)CCC(=O)N3CCN(CC(=O)NC(C)(C)C)CC3)nc(-c3ccc(OC)cc3)n2)cc1 [9a]	4%	1%	19%	203 to 205 °C
COc1ccc(-c2cc(NC(=O)CCC(=O)N3CCN(CC(=O)NC4CCCCC4)CC3)nc(-c3ccc(OC)cc3)n2)cc1 [9b]	1%	1%	9%	
COc1ccc(-c2cc(NC(=O)CCC(=O)N3CCN(CC(=O)NCc4ccccc4)CC3)nc(-c3ccc(OC)cc3)n2)cc1 [9c]	9%	2%	6%	194 to 195 °C
COc1ccc(-c2cc(NC(=O)COCC(=O)N3CCN(CC(=O)NC(C)(C)C)CC3)nc(-c3ccc(OC)cc3)n2)cc1 [10a]	36%	3%	9%	106 to 108 °C
COc1ccc(-c2cc(NC(=O)COCC(=O)N3CCN(CC(=O)NC4CCCCC4)CC3)nc(-c3ccc(OC)cc3)n2)cc1 [10b]	3%	2%	11%	
COc1ccc(-c2cc(NC(=O)COCC(=O)N3CCN(CC(=O)NCc4ccccc4)CC3)nc(-c3ccc(OC)cc3)n2)cc1 [10c]	7%	1%	2%	
COc1ccc(-c2cc(NC(C)=O)nc(-c3ccc(OC)cc3)n2)cc1 [ISVY-130, N-(2,6-bis(4-methoxyphenyl)pyrimidin-4-yl)acetamide, reference compound]	10%	4%	1%	
